# Results from patent US20240299376A1, “METHOD OF TREATING A CONDITION USING A […] EFFECTIVE DOSE OF 1-(1-OXO-1,2-DIHYDROISOQUINOLIN-5-YL)-5-(TRIFLUOROMETHYL)-N-(2-(TRIFLUOROMETHYL)PYRIDIN-4-YL)-1H-PYRAZOLE-4-CARBOXAMIDE” (Janssen Pharmaceutica NV, priority 2021, published 2024).
# Like-named read-outs stand apart in the source and are kept apart here. Marks after values point to notes of the source that are not given here.
# Experiments:
# primary T cells = assay: Treg/Teff ratio after CD3/28 stimulation of primary T cells (flow cytometry); assay type: cell-based, human; settings: compound added 24 hours after CD3/28 stimulation, for 72 hours
# Text: The role of MALT1 in the immunologic activity of T cells was investigated by looking at the proportions of Treg and effector T cells (Teff). These cells are in a dynamic balance and their ratio correlates with the effectiveness of protective immunity. An accumulation of Tregs, resulting in a higher Treg/Teff ratio within tumor tissue, is associated with worse prognosis in cancer. Whiteside T L. What are regulatory T cells (Treg) regulating in cancer and why? Semin Cancer Biol. 2012, 22, 327-34. In vitro, activation of T cells through TCR stimulation increases the Treg/Teff ratio by increasing the Treg population, as defined by CD4^+CD25^hiFOXP3^hi.
# After 24 hours of pre-stimulation, the compound was added for 72 hours. Alternatively, the compound was added together with the CD3/28 stimulus for 96 hours. Cells were stained for flow cytometric analysis (BD Facs Verse). After gating on the living singlet population, the proportions of CD8^+ Teff and CD4^+CD25^hiFOXP3^hi Treg subpopulations were analysed.
# [1] = Serum and tumor levels after a single oral dose in male OCI-LY3 tumor-bearing NSG mice; assay type: in vivo; settings: 100 mg/kg single oral dose, PEG400 solution, mean (SD)
# Experimental: For PD, when tumors reached 550-750 mm^3 animals were assigned randomly into the treatment groups and treated as presented in Table 5. Dose volumes were adjusted to individual body weights at 10 mL/kg. For both PD studies, serum was collected at 2 and 12 hours post treatment from the retro-orbital sinus. At 24 hours post treatment, animals were bled via decapitation and tumors were excised, weighed, and divided for bioanalysis and ex vivo PD analysis. Blood was centrifuged at 10,000 rpm and serum divided for bioanalysis and PD analysis.
# Serum samples were collected at 2, 12, and 24 hours post dose and tumor samples were collected 24 hours post dose.
# [2] = Serum concentration after 28 days of oral dosing in male OCI-LY3 tumor-bearing NSG mice; assay type: in vivo; settings: mouse, mean; for concentration at 1 h: 1 h post last dose; for concentration at 2 h: 2 h post last dose; for concentration at 4 h: 4 h post last dose; for concentration at 8 h: 8 h post last dose; for concentration at 12 h: 12 h post last dose; for concentration at 0.25 h: 0.25 h post last dose
# Experimental: For study 3, animals were randomly assigned into treatment groups, when the OCI-LY3 mean tumor volume was 164 mm^3 (Day 32 post-tumor cell implantation). Treatment was initiated on the day of randomization (Day 32). After 28 days of treatment on Day 60, serum was collected at 2, 4, and 12 hours post last dose for the bid treated groups or 2, 4 and 24 hours post last dose for qd treated groups in cohorts of 5 mice. Blood was collected from the retro-orbital sinus and submitted for bioanalytical analysis.
# Serum samples were collected at 1, 2, 4, 8, and 12 hours post dose (for twice-daily-treated animals) or 24 hours (for once-daily-treated animals).
# [3] = Preliminary food effect assessment at steady state; assay type: in vivo, human
# Experimental: Preliminary food effect was assessed in 8 subjects at steady state: 2 subjects at 100 mg (2×50 mg), 1 subject at 400 mg (2×200 mg), 1 subject at 200 mg (4×50 mg) and 4 subjects at 300 mg (3×100 mg). In the fasting condition, JNJ-67856633 was administered after overnight fasting for at least 8 hours. In the fed condition, following an overnight fast of at least 8 hours, the subjects were given a high-fat meal 30 minutes before drug intake. In both conditions, no food was allowed for at least 4 hours after study drug intake. Individual plasma concentrations of JNJ-67856633 under fasting and fed conditions using 50 mg or 200 mg capsules are shown in Table 16.
# B-cell lymphoma lines = assay: Anti-proliferative activity, panel of 10 B-cell lymphoma lines (general cytotoxicity); assay type: cell-based
# Experimental: Four ABC-DLBCL cell lines with activating mutations in the canonical NFκB pathway were evaluated (OCI-LY3 (CARD11, MYD88 & A20 mutations), TMD8, HBL1, and OCI-LY10 (CD79B & MYD88 mutations)), which are generally sensitive to NF-κB pathway inhibition. None of the GCB-DLBCL cell lines harbor mutations in the NF-κB pathway. The GCB-DLBCL cell lines served as a negative control to exclude compounds with general cytotoxic effects.
# At concentrations ≥20 μM general cytotoxicity was observed.
# [4] = Serum concentration after 28 days of oral dosing in male OCI-LY3 tumor-bearing NSG mice; assay type: in vivo; settings: mouse, mean; for concentration at 0.25 h: 0.25 h post last dose
compound,measurement,setting,value
"O=C(Nc1ccnc(C(F)(F)F)c1)c1cnn(-c2cccc3c(=O)[nH]ccc23)c1C(F)(F)F [Compound A, 1-(1-oxo-1,2-dihydroisoquinolin-5-yl)-5-(trifluoromethyl)-N-[2-(trifluoromethyl)pyridin-4-yl]-1H-pyrazole-4-carboxamide]",effect on Treg and Teff populations,primary T cells,did not influence the Treg and Ter populations
same,Serum concentration,[1]; 12 h post dose,"4,118 (1,322 ng/ml"
same,Tumor concentration,"[1]; 24 h post dose, N = 4","1,180 (223)^b ng/g"
same,concentration at 2 h,"[1]; male, NSG, mouse, serum, 2 h post dose",3730 ng/mL
same,concentration at 24 h,"[1]; male, NSG, mouse, serum, 24 h post dose",1060 ng/mL
same,concentration at 1 h,[2]; 1 mg/kg BID PO 28 days,550 ng/mL
same,concentration at 2 h,[2]; 1 mg/kg BID PO 28 days,449 ng/mL
same,concentration at 4 h,[2]; 1 mg/kg BID PO 28 days,526 ng/mL
same,concentration at 8 h,[2]; 1 mg/kg BID PO 28 days,721 ng/mL
same,concentration at 12 h,[2]; 1 mg/kg BID PO 28 days,307 ng/mL
same,concentration at 0.25 h,[2]; 3 mg/kg BID PO 28 days,1020 ng/mL
same,concentration at 1 h,"[2]; 3 mg/kg BID PO 28 days, N = 2",1940 ng/mL
same,concentration at 2 h,[2]; 3 mg/kg BID PO 28 days,1560 ng/mL
same,concentration at 4 h,[2]; 3 mg/kg BID PO 28 days,1150 ng/mL
same,concentration at 8 h,"[2]; 3 mg/kg BID PO 28 days, N = 2",2680 ng/mL
same,concentration at 12 h,[2]; 3 mg/kg BID PO 28 days,1020 ng/mL
same,concentration at 0.25 h,[2]; 10 mg/kg BID PO 28 days,4050 ng/mL
same,concentration at 1 h,[2]; 10 mg/kg BID PO 28 days,5080 ng/mL
same,concentration at 2 h,[2]; 10 mg/kg BID PO 28 days,4600 ng/mL
same,concentration at 4 h,[2]; 10 mg/kg BID PO 28 days,6250 ng/mL
same,concentration at 8 h,[2]; 10 mg/kg BID PO 28 days,5500 ng/mL
same,concentration at 12 h,[2]; 10 mg/kg BID PO 28 days,4170 ng/mL
same,concentration at 0.25 h,[2]; 30 mg/kg BID PO 28 days,5970 ng/mL
same,concentration at 1 h,[2]; 30 mg/kg BID PO 28 days,11400 ng/mL
same,concentration at 2 h,[2]; 30 mg/kg BID PO 28 days,12300 ng/mL
same,concentration at 4 h,[2]; 30 mg/kg BID PO 28 days,10400 ng/mL
same,concentration at 8 h,[2]; 30 mg/kg BID PO 28 days,14700 ng/mL
same,concentration at 12 h,[2]; 30 mg/kg BID PO 28 days,9000 ng/mL
same,concentration at 1 h,[2]; 60 mg/kg QD PO 28 days,9270 ng/mL
same,concentration at 2 h,[2]; 60 mg/kg QD PO 28 days,16000 ng/mL
same,concentration at 4 h,[2]; 60 mg/kg QD PO 28 days,11400 ng/mL
same,concentration at 24 h,"[2]; 60 mg/kg QD PO 28 days, 24 h post last dose",2510 ng/mL
same,concentration at 0.25 h,[2]; 100 mg/kg BID PO 28 days,16500 ng/mL
same,concentration at 1 h,[2]; 100 mg/kg BID PO 28 days,21200 ng/mL
same,concentration at 2 h,[2]; 100 mg/kg BID PO 28 days,21600 ng/mL
same,concentration at 4 h,[2]; 100 mg/kg BID PO 28 days,12800 ng/mL
same,concentration at 8 h,[2]; 100 mg/kg BID PO 28 days,20500 ng/mL
same,concentration at 12 h,[2]; 100 mg/kg BID PO 28 days,10300 ng/mL
same,Cmax,"[3]; 2 × 50 mg, fasted condition, steady state, individual values, N = 2, listed as JNJ-67856633",18200 ng/mL
same,Cmax,"[3]; 2 × 50 mg, fed condition (high-fat meal), steady state, individual values, N = 2, listed as JNJ-67856633",18400 ng/mL
same,AUCτ,"[3]; 2 × 50 mg, fed condition, steady state, individual values, N = 2, listed as JNJ-67856633",421 µg·h/mL
same,steady state exposure (Cmax and AUCτ) fasting vs fed,[3]; 8 subjects at steady state,comparable
same,AUC,"[3]; human, plasma, oral, 100 mg, 2 × 50 mg, fasted condition, steady state, N = 2",313 µg·h/mL
same,Cmax,"[3]; human, plasma, oral, 100 mg, 2 × 50 mg, fasted condition, steady state, individual values, N = 2, read-out: Cmax",15300 ng/mL
same,Tmax,"[3]; human, plasma, oral, 100 mg, 2 × 50 mg, fasted condition, steady state, individual values, N = 2, read-out: Tmax",2 h
same,Cmax,"[3]; human, plasma, oral, 100 mg, 2 × 50 mg, fed condition (high-fat meal), steady state, individual values, N = 2, read-out: Cmax",13400 ng/mL
same,AUC,"[3]; human, plasma, oral, 100 mg, 2 × 50 mg, fed condition, steady state, individual values, N = 2",304 µg·h/mL
same,Tmax,"[3]; human, plasma, oral, 100 mg, 2 × 50 mg, fed condition, steady state, individual values, N = 2, read-out: Tmax",6 h
same,AUC,"[3]; human, plasma, oral, 200 mg, 4 × 50 mg, fasted condition, steady state, N = 1",958 µg·h/mL
same,Cmax,"[3]; human, plasma, oral, 200 mg, 4 × 50 mg, fasted condition, steady state, N = 1, read-out: Cmax",47500 ng/mL
same,Tmax,"[3]; human, plasma, oral, 200 mg, 4 × 50 mg, fasted condition, steady state, N = 1, read-out: Tmax",1 h
same,AUC,"[3]; human, plasma, oral, 200 mg, 4 × 50 mg, fed condition, steady state, N = 1",1010 µg·h/mL
same,Cmax,"[3]; human, plasma, oral, 200 mg, 4 × 50 mg, fed condition, steady state, N = 1, read-out: Cmax",48400 ng/mL
same,Tmax,"[3]; human, plasma, oral, 200 mg, 4 × 50 mg, fed condition, steady state, N = 1, read-out: Tmax",24 h
same,AUC,"[3]; human, plasma, oral, 400 mg, 2 × 200 mg, fasted condition, steady state, N = 1",1100 µg·h/mL
same,Cmax,"[3]; human, plasma, oral, 400 mg, 2 × 200 mg, fasted condition, steady state, N = 1, read-out: Cmax",61100 ng/mL
same,AUC,"[3]; human, plasma, oral, 400 mg, 2 × 200 mg, fed condition, steady state, N = 1",1320 µg·h/mL
same,Cmax,"[3]; human, plasma, oral, 400 mg, 2 × 200 mg, fed condition, steady state, N = 1, read-out: Cmax",64000 ng/mL
same,Tmax,"[3]; human, plasma, oral, fasting conditions, 8 subjects at steady state, read-out: Tmax range",0 to 4 h
same,Tmax,"[3]; human, plasma, oral, fed conditions, 8 subjects at steady state, read-out: Tmax range",0.5 to 24 h
same,concentrations at which general cytotoxicity was observed,B-cell lymphoma lines,≥ 20 µM
same,concentration at 0.25 h,[4]; 1 mg/kg BID PO 28 days,323 ng/mL
same,concentration at 0.25 h,[4]; 60 mg/kg QD PO 28 days,6990 ng/mL
same,concentration at 8 h,"[4]; 60 mg/kg QD PO 28 days, 8 h post last dose",10600 ng/mL
